Laboratory results from patent US7390806B2, “Antibiotics containing borinic acid complexes and methods of use” (Anacor Pharmaceuticals, Inc., priority 2002, dated 2008).
Values after ≈ are worked out from the molar mass of the structure shown.

Experiments:
S. pneumoniae ATCC 6301 = assay: MIC determination, S. pneumoniae ATCC 6301; type: cell-based, Streptococcus pneumoniae; details: for MIC: Streptococcus pneumoniae, ATCC6301, Table 1, read-out: MIC S. pneumoniae ATCC 6301; for MIC S. pneumoniae ATCC 6301: Table 1
[1] = system: S. epidermidis ATCC 12228; assay: MIC determination, S. epidermidis ATCC 12228; type: cell-based, Staphylococcus epidermidis; details: for MIC: Staphylococcus epidermidis, ATCC12228, Table 1, read-out: MIC S. epidermidis ATCC 12228; for MIC S. epidermidis ATCC 12228: Table 1
E. faecalis ATCC 29212 = assay: MIC determination, E. faecalis ATCC 29212; type: cell-based, Enterococcus faecalis; details: for MIC: Enterococcus faecalis, ATCC29212, Table 1, read-out: MIC E. faecalis ATCC 29212; for MIC E. faecalis ATCC 29212: Table 1
S. aureus ATCC 29213 = assay: MIC determination, S. aureus ATCC 29213; type: cell-based, Staphylococcus aureus; details: for MIC S. aureus ATCC 29213: Table 1
E. faecium CT-26 = assay: MIC determination, E. faecium CT-26; type: cell-based, Enterococcus faecium; details: for MIC: Enterococcus faecium, CT26, Table 1, read-out: MIC E. faecium CT-26; for MIC E. faecium CT-26: Table 1
[2] = system: M. catarrhalis ATCC 25238; assay: MIC determination, M. catarrhalis ATCC 25238; type: cell-based; details: for MIC: Moraxella catarrhalis, ATCC25238, Table 1, read-out: MIC M. catarrhalis ATCC 25238; for MIC M. catarrhalis ATCC 25238: Table 1

MIC (S. pneumoniae ATCC 6301) | MIC [1] | MIC (E. faecalis ATCC 29212) | MIC (S. aureus ATCC 29213; Staphylococcus aureus, ATCC29213, Table 1, read-out: MIC S. aureus ATCC 29213) | MIC (E. faecium CT-26) | MIC [2] | SMILES | MIC S. pneumoniae ATCC 6301 (S. pneumoniae ATCC 6301) | MIC S. epidermidis ATCC 12228 [1] | MIC E. faecalis ATCC 29212 (E. faecalis ATCC 29212) | MIC S. aureus ATCC 29213 (S. aureus ATCC 29213) | MIC E. faecium CT-26 (E. faecium CT-26) | MIC M. catarrhalis ATCC 25238 [2]
2 mg/L (≈ 9.12 µM) | 8 mg/L (≈ 36.5 µM) | 16 mg/L (≈ 73 µM) | 0.5 mg/L (≈ 2.28 µM) | 16 mg/L (≈ 73 µM) | 2 mg/L (≈ 9.12 µM) | COc1cccc2c(O)cc(C(=O)O)nc12 [Compound 25] |  |  |  |  |  | 
 |  |  |  |  |  | Oc1cccc2cccnc12 [Compound 37, 8-hydroxyquinoline] | 1 micrograms per ml | 1 micrograms per ml | 8 micrograms per ml | 1 micrograms per ml | 2 micrograms per ml | 1 micrograms per ml
 |  |  |  |  |  | Oc1ccc(F)c2cccnc12 [Compound 57] | 4 micrograms per ml | 2 micrograms per ml | 16 micrograms per ml | 2 micrograms per ml | 4 micrograms per ml | 1 micrograms per ml
 |  |  |  |  |  | Oc1cccc2cccnc12 [Compound 80, 8-hydroxyquinoline] | 2 micrograms per ml | 1 micrograms per ml | 4 micrograms per ml | 2 micrograms per ml | 4 micrograms per ml | 2 micrograms per ml
 |  |  |  |  |  | Oc1cccc2cccnc12 [Compound 93, 8-hydroxyquinoline] | 1 micrograms per ml | 1 micrograms per ml | 8 micrograms per ml | 2 micrograms per ml | 4 micrograms per ml | 1 micrograms per ml
 |  |  |  |  |  | Oc1cccc2cccnc12 [Compound 81, 8-hydroxyquinoline] | 2 micrograms per ml | 1 micrograms per ml | 8 micrograms per ml | 2 micrograms per ml | 4 micrograms per ml | 2 micrograms per ml
 |  |  |  |  |  | Oc1cccc2cccnc12 [Compound 86, 8-hydroxyquinoline] | 2 micrograms per ml | 1 micrograms per ml | 8 micrograms per ml | 2 micrograms per ml | 4 micrograms per ml | 2 micrograms per ml
 |  |  |  |  |  | Oc1cccc2cccnc12 [Compound 77, 8-hydroxyquinoline] | 1 micrograms per ml | 1 micrograms per ml | 8 micrograms per ml | 2 micrograms per ml | 4 micrograms per ml | 2 micrograms per ml
 |  |  |  |  |  | Oc1cccc2cccnc12 [Compound 94, 8-hydroxyquinoline] | 1 micrograms per ml | 1 micrograms per ml | 8 micrograms per ml | 2 micrograms per ml | 4 micrograms per ml | 2 micrograms per ml
 |  |  |  |  |  | Oc1cccc2cccnc12 [Compound 95, 8-hydroxyquinoline] | 2 micrograms per ml | 1 micrograms per ml | 8 micrograms per ml | 2 micrograms per ml | 2 micrograms per ml | 1 micrograms per ml
1 mg/L (≈ 6.28 µM) | 1 mg/L (≈ 6.28 µM) | 64 mg/L (≈ 402 µM) |  | 4 mg/L (≈ 25.1 µM) | 0.5 mg/L (≈ 3.14 µM) | Cc1ccnc2c(O)cccc12 [Compound 14] |  |  |  | 0.125 micrograms per ml |  | 
2 mg/L (≈ 12.3 µM) | 2 mg/L (≈ 12.3 µM) | 8 mg/L (≈ 49 µM) |  | 4 mg/L (≈ 24.5 µM) |  | Oc1ccc(F)c2cccnc12 [Compound 12] |  |  |  | 0.125 micrograms per ml |  | 2 micrograms per ml
